{
  "source": "ChEMBL document CHEMBL1146794",
  "about": "“Novel delta2-isoxazolines as group II phospholipase A2 inhibitors” (Bioorg Med Chem Lett, 2004)",
  "key": {"[1]": {"test": "Inhibitory activity against group II Phospholipase A2 (PLA2) from Vipera russelli russelli venom", "design": "species or system Daboia russelii russelii"}, "[2]": {"test": "Compound (2.5 uM) was tested for edema inducing activity of group II PLA2 (1 ug) was determined in mice footpads", "type": "functional, Daboia russelii russelii"}},
  "data": [
    {"molecule": "CCCCc1nc(C2=NOC(CO)C2)c(Cl)[nH]1", "note": "(stereo unspecified)", "values": [
      {"measurement": "IC50", "setting": "[1]", "value": 152, "unit": "nM"}
    ]},
    {"molecule": "CCCCc1nc(C2=NOC(CC(=O)OC)C2)c(Cl)[nH]1", "note": "(stereo unspecified)", "values": [
      {"measurement": "IC50", "setting": "[1]", "value": 209, "unit": "nM"}
    ]},
    {"molecule": "CCCCc1nc(C2=NOC(C(=O)OC)C2)c(Cl)[nH]1", "note": "(stereo unspecified)", "values": [
      {"measurement": "IC50", "setting": "[1]", "value": 250, "unit": "nM"}
    ]},
    {"molecule": "CCCCc1nc(C2=NOC(C(=O)Oc3ccccc3)C2)c(Cl)[nH]1", "note": "(stereo unspecified)", "values": [
      {"measurement": "IC50", "setting": "[1]", "value": 195, "unit": "nM"}
    ]},
    {"molecule": "CCCCc1nc(C2=NOC(C#N)C2)c(Cl)[nH]1", "note": "(stereo unspecified)", "values": [
      {"measurement": "IC50", "setting": "[1]", "value": 96.4, "unit": "nM"},
      {"measurement": "Edema ratio", "setting": "[2]", "value": 120}
    ]},
    {"molecule": "CCCCc1nc(C2=NOC(c3ccccc3)C2)c(Cl)[nH]1", "note": "(stereo unspecified)", "values": [
      {"measurement": "IC50", "setting": "[1]", "value": 142, "unit": "nM"}
    ]},
    {"molecule": "CCCCc1nc(C2=NOC(C(=O)OCC)C2)c(Cl)[nH]1", "note": "(stereo unspecified)", "values": [
      {"measurement": "IC50", "setting": "[1]", "value": 86.2, "unit": "nM"},
      {"measurement": "Edema ratio", "setting": "[2]", "value": 116}
    ]},
    {"molecule": "C[C@H]1[C@H](C)CC[C@]2(C(=O)O)CC[C@]3(C)C(=CC[C@@H]4[C@@]5(C)CC[C@H](O)C(C)(C)[C@@H]5CC[C@]43C)[C@H]12", "note": "[URSOLIC ACID]", "values": [
      {"measurement": "IC50", "setting": "[1]", "value": 2.5, "unit": "nM"},
      {"measurement": "Edema ratio", "setting": "[2]", "value": 102}
    ]}
  ]
}
